From US6653321B1, “Naphthylsulfonic acids and related compounds as glucose uptake agonists” (Telik, Inc., priority 1999, dated 2003)

Assays:
[1] = biological target: T1, β-kinase domain of the human insulin receptor (CKD) (Homo sapiens, UniProt P06213); test: 32P-Cytoplasmic Kinase Domain (CKD) autophosphorylation assay; type: biochemical; details: 32P incorporated into CKD band, percentage of the vehicle (DMSO) level; 10 minutes at room temperature; compound concentration not given
T1 construct: The complete β-kinase domain of the human insulin receptor (CKD); made in house
Description: The complete β-kinase domain of the human insulin receptor (CKD) was expressed in, and purified from, baculovirus. CKD (4.0 μg/mL), in a solution of 50 mM Tris.HCl, 2 mM MnCl2, 10 mM MgCl2 (50 μl final volume), was combined with […] ATP, and 5 μCi ^32P-ATP (3000 Ci/mmol.). A test compound, or the vehicle (DMSO), was added to a final DMSO concentration of 1%. The mixture was incubated for 10 minutes at room temperature. The reaction was terminated by the addition of 10 μl of 200 mM EDTA. A 30 μl volume was removed, mixed with 5 μl of 6×Laemmeli sodium dodecyl sulfate (SDS) treatment buffer, and heated to 94° C. for 5 minutes. A 20 μl aliquot was then run on an SDS-PAGE gel. The radioactivity incorporated into the CKD band is quantified by phosphorimaging of the gel, or scintillation counting of the excised bands.
The potency of a compound for increasing phosphorylation is expressed as a percentage of the vehicle level.

[2] = tested on: 3T3 L1 fibroblasts; test: Glucose transport activity (14C-2-deoxy-D-glucose uptake); type: cell-based; details: Mus musculus; differentiated 3T3 L1 cells, insulin 5.6 nM; concentration giving increase in glucose transport generally 150% of the vehicle control
Description: 3T3 L1 fibroblasts (ATCC) were grown in Dulbecco's modified Eagle's medium (DMEM) with 10% fetal bovine serum (FBS, medium). The cells were plated at a density of 3×10^4 cells/well in 24-well plates. Two days after confluence was reached, the cells were treated for 3 days with 0.5 mM isobutylmethylxanthine (IBMX), 1 μM dexamethasone, supplemented with 1.7 μM insulin. The cells were then transferred to medium with 1.7 μM insulin for 2 more days. The cells were maintained in medium for an additional 4 days. Finally the cells were serum starved overnight in 0.1% bovine serum albumin (BSA) in DMEM.
The following day, the culture medium was replaced with 150 mM NaCl, 1.7 mM KCl, 0.9 mM CaCl2, 1.47 mM K2HPO4 (pH 7.4) to which was added either the experimental compounds, or their vehicle (DMSO). Insulin or its vehicle (0.01% BSA) was diluted in the assay buffer (containing test compound or vehicle, respectively) to a final concentration of 5.6 nM. After incubation for 30 min at 37° C. 5 μCi/mL ^14C-2-[…]-D-glucose was added, and the incubation was continued for additional 30 min at 37° C. The cells were then washed 3 times with ice-cold PBS/20 mM glucose and […] in 250 μl of lysis buffer (50 mM HEPES pH 7.6, 1% Triton X-100) for 30 min at room temperature. Radioactivity in the lysate was quantified by scintillation counting.
Once ^14C-2-deoxy-D-glucose is transported into the cell it is not released. Glucose transport is, therefore, proportional to the amount of radioactivity in the lysate. The concentration of compound necessary to produce an increase in glucose transport greater than the sum of the standard deviation of the vehicle control plus the largest standard deviation of a test sample (generally 150% of the vehicle control) was recorded as the EC (effective concentration).

T1 sequence (P06213 980-1382 limits assumed): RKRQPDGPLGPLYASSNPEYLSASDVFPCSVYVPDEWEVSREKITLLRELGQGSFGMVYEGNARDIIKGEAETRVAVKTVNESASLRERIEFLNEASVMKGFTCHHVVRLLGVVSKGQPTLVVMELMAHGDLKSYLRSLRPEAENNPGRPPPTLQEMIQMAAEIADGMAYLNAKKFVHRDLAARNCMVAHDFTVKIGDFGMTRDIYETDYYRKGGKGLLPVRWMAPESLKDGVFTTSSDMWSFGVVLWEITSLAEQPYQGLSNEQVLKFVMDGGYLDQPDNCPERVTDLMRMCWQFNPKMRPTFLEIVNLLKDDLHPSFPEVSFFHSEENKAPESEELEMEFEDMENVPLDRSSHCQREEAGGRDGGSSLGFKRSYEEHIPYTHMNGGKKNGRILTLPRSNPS

Activity (% Control) [1] [% Control]	SMILES	EC50 [2] [µM]
95.3	O=C(Nc1cccc2cc(S(=O)(=O)O)ccc12)c1cc(NC(=O)c2cc(Cl)c(Cl)cc2C(=O)O)cc(C(=O)Nc2cccc3cc(S(=O)(=O)O)ccc23)c1 [Compound 18, 2-(N-{3,5-bis[N-(6-sulfonaphthyl)carbamoyl]phenyl}carbamoyl)-4,5-dichlorobenzoic acid]	> 250
86.8	CC(=O)Nc1cc(C(=O)Nc2cccc3cc(S(=O)(=O)O)ccc23)cc(C(=O)Nc2cccc3cc(S(=O)(=O)O)ccc23)c1 [Compound 23, 5-({3-(acetylamino)-5-[N-(6-sulfonaphthyl)carbamoyl]phenyl}carbonylamino)naphthalene-2-sulfonic acid]	> 250
96.9	O=C(Nc1cccc2cc(S(=O)(=O)O)ccc12)c1cc(NC(=O)c2cnc3ccccc3n2)cc(C(=O)Nc2cccc3cc(S(=O)(=O)O)ccc23)c1 [Compound 39]	100
104.3	O=C(Nc1cccc2cc(S(=O)(=O)O)ccc12)c1cc(NC(=O)c2cccc(O)c2C(=O)O)cc(C(=O)Nc2cccc3cc(S(=O)(=O)O)ccc23)c1 [Compound 21, 2-(N-{3,5-bis[N-(6-sulfonaphthyl)carbamoyl]phenyl}carbamoyl)-6-hydroxybenzoic acid]	> 250
99	O=C(Nc1cc(C(=O)Nc2cccc3cc(S(=O)(=O)O)ccc23)cc(C(=O)Nc2cccc3cc(S(=O)(=O)O)ccc23)c1)c1ccc(Cl)cc1 [Compound 19, 5-({3-[(4-chlorophenyl)carbonylamino]-5-[N-(6-sulfonaphthyl)carbamoyl]phenyl}carbonylamino)naphthalene-2-sulfonic acid]	150
130.7	Cc1ccc(OCC(=O)Nc2cc(C(=O)Nc3cccc4cc(S(=O)(=O)O)ccc34)cc(C(=O)Nc3cccc4cc(S(=O)(=O)O)ccc34)c2)cc1 [Compound 40, 5-({3-[2-(4-methylphenoxy)acetylamino]-5-[N-(6-sulfonaphthyl)carbamoyl]phenyl}carbonylamino)naphthalene-2-sulfonic acid]	> 250

More lines, now with the values behind:

SMILES	Activity (% Control) [1] [% Control]	EC50 [2] [µM]
Cc1ccc(C(=O)Nc2cc(C(=O)Nc3cccc4cc(S(=O)(=O)O)ccc34)cc(C(=O)Nc3cccc4cc(S(=O)(=O)O)ccc34)c2)cc1 [Compound 8, 5-({3-[(4-methylphenyl)carbonylamino]-5-[N-(6-sulfonaphthyl)carbamoyl]phenyl}carbonylamino)naphthalene-2-sulfonic acid]	130.5	3
COc1ccc(C(=O)Nc2cc(C(=O)Nc3cccc4cc(S(=O)(=O)O)ccc34)cc(C(=O)Nc3cccc4cc(S(=O)(=O)O)ccc34)c2)cc1 [Compound 9, 5-({3-[(4-methoxyphenyl)carbonylamino]-5-[N-(6-sulfonaphthyl)carbamoyl]phenyl}carbonylamino)naphthalene-2-sulfonic acid]	125.3	10
Cc1ccc(C(=O)Nc2cc(C(=O)Nc3cccc4cc(S(=O)(=O)O)ccc34)cc(C(=O)Nc3cccc4cc(S(=O)(=O)O)ccc34)c2)cc1[N+](=O)[O-] [Compound 16, 5-({3-[(3-nitro-4-methylphenyl)carbonylamino]-5-[N-(6-sulfonaphthyl)carbamoyl]phenyl}carbonylamino)naphthalene-2-sulfonic acid]	99.9	20
COc1cccc(C(=O)Nc2cc(C(=O)Nc3cccc4cc(S(=O)(=O)O)ccc34)cc(C(=O)Nc3cccc4cc(S(=O)(=O)O)ccc34)c2)c1 [Compound 13, 5-({3-[(3-methoxyphenyl)carbonylamino]-5-[N-(6-sulfonaphthyl)carbamoyl]phenyl}carbonylamino)naphthalene-2-sulfonic acid]	83.7	200
Cc1cccc(C(=O)Nc2cc(C(=O)Nc3cccc4cc(S(=O)(=O)O)ccc34)cc(C(=O)Nc3cccc4cc(S(=O)(=O)O)ccc34)c2)c1 [Compound 7, 5-({3-[(3-methylphenyl)carbonylamino]-5-[N-(6-sulfonaphthyl)carbamoyl]phenyl}carbonylamino)naphthalene-2-sulfonic acid]	93.3	> 250
O=C(Nc1cc(C(=O)Nc2cccc3cc(S(=O)(=O)O)ccc23)cc(C(=O)Nc2cccc3cc(S(=O)(=O)O)ccc23)c1)c1cccc([N+](=O)[O-])c1 [Compound 15, 5-({3-[(3-nitrophenyl)carbonylamino]-5-[N-(6-sulfonaphthyl)carbamoyl]phenyl}carbonylamino)naphthalene-2-sulfonic acid]	88.2	240
